This is an account of results in article PMC4910235, “Selenophene and thiophene-core estrogen receptor ligands that inhibit motility and development of parasitic stages of Haemonchus contortus” (Parasites & Vectors, 2016).

“Also recorded” adds a separate entry of the source. Where two headings read alike, the source gives them in different places. Bounds are passed on as bounds.

The test system of experiment [1] is exsheathed third-stage larvae (xL3s) of H. contortus. Put plainly: xL3 motility assay (whole-organism screen and dose-response). It is filed as cell-based, Haemonchus contortus. On the procedure: The selenophene and thiophene-core ligands (n = 74) (Additional file 1) were screened at a concentration of 20 μM on exsheathed third-stage larvae (xL3s) of H. contortus in 96-well microculture plates (cat. no. 3635; Corning 3650, Life Sciences, Corning, USA) using relevant control compounds (i.e. moxidectin and monepantel), as described previously. In brief, compounds were dissolved to a stock concentration of 10 mM in either dimethyl sulfoxide (DMSO) or methanol (Sigma-Adrich Scientific, St. Louis, USA). These ligands were then individually diluted to the final concentration of 20 μM using Luria Bertani medium (LB) supplemented with 100 IU/ml of penicillin, 100 μg/ml of streptomycin and 2.5 μg/ml of amphotericin (LB*). Compounds were dispensed (in triplicate) into the wells of a 96-well microculture plate using a multichannel pipette. In addition, the negative controls (LB*, LB* + 0.5 % solvent; six wells each), and positive controls (20 μM of monepantel; Zolvix, Novartis Animal Health, Basel, Switzerland and 20 μM of moxidectin; Cydectin, Virbac, Carros, France; triplicate wells) and xL3s (~300/well) were dispensed into wells of the plate using an automated multichannel pipette (Viaflo Assist/II, Integra Biosciences, Zizers, Switzerland). […], a video recording (5 s) was taken of each well of the 96-well microculture plate (containing xL3s) using a greyscale camera (Rolera Bolt CMOS, Qimaging Scientific, Surrey, Canada) and a motorised X-Y axis stage (BioPoint 2, Ludl Electronics Products, Hawthorne, USA). Individual videos were processed to calculate a motility index (MI) using an algorithm described previously. MIs were normalised to the negative and positive controls (to remove plate-to-plate variation) using the program Prism (v.6 GraphPad Software, USA). Z’-scores were calculated to validate the performance of the screening assay; reliable assays achieve Z’-scores of between 0.5 and 1 [28]. A compound was recorded as having an activity if it reduced xL3 motility by ≥ 70 % following incubation for 72 h. […] Compounds that reduced the motility of xL3s were also tested for their ability to inhibit the motility of L4s (same protocol as for xL3s) and/or to affect the development of xL3s to L4s. Following the measurement of L4 motility, larvae were re-incubated for 4 more days and fixed with 1 % iodine (50 μl). Then, L4 development was assessed based on the presence of a well-developed mouth/pharynx using a light microscope and expressed as a percentage of the total number of larvae examined (n = 30).
All assays (to assess xL3 motility, L4 development and L4 motility) were performed in triplicate, three times, on separate days.

The target of another experiment is T1, ERα (Homo sapiens, UniProt P03372).
T1 construct: expressed in transfected cells; host or cells: HEK 293 T
T1 sequence (P03372 1-595): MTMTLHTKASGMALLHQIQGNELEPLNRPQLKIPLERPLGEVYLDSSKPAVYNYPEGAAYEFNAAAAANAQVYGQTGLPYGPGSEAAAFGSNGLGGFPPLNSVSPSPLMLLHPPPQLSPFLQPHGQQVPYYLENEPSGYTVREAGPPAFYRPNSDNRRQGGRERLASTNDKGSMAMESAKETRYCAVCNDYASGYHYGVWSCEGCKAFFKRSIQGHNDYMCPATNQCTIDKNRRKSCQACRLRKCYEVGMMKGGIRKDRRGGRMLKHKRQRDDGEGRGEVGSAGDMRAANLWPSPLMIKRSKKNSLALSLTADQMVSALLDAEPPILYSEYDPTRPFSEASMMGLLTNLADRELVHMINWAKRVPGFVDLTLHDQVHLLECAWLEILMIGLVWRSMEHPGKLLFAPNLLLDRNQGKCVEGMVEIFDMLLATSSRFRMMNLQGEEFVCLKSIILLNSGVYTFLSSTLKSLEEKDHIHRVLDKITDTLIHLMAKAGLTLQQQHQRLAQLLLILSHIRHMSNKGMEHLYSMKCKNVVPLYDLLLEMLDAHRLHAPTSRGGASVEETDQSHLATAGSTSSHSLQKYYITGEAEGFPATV
Put plainly: 3×ERE-luciferase reporter gene assay in HEK 293 T cells, ERα. It is filed as cell-based. On the procedure:
(§1) Cells in phenol red-free DMEM with 10 % FBS were plated. […] The next day, the cells were treated with increasing doses of ER ligands diluted in phenol red-free DMEM with 10 % FBS. After 24 h, luciferase activity was measured using the dual-luciferase reporter assay system (Promega, Fitchburg, USA) performed according to the manufacturer’s protocol.

For experiment [2], the target named is T2, human ERα ligand binding domain (Homo sapiens, UniProt P03372).
T2 sequence (P03372 311-547 limits assumed): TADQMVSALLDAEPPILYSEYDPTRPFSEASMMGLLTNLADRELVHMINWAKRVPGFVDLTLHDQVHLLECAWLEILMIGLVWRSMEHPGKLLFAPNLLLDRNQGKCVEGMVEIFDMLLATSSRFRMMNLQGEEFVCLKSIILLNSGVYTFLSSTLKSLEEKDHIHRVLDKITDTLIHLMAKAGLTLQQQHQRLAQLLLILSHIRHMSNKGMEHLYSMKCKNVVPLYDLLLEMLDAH
Kind of experiment: Competitive fluorometric receptor-binding assay, ERα. The conditions noted are these: estradiol = 100 %; fluorescence polarisation, coumestrol tracer. The procedure: (§2) Relative binding affinities were determined by a competitive fluorometric binding assay, as described previously. Briefly, 40 nM fluorescence tracer (coumestrol, Sigma-Aldrich) and 0.8 μM purified human ERα or ERβ ligand binding domain were diluted in 100 mM potassium phosphate buffer (pH 7.4), containing 100 μg/ml bovine γ-globulin (Sigma-Aldrich), and an equal volume of test compound was added. Incubation was for 2 h at 25 °C. The fluorescence polarisation values were measured. […] The values given are the average ± range of two independent determinations. IC50 values were calculated using a published formula [29].
For orientation: In fluorescence polarisation assays a small probe gives low polarisation when free and higher when bound to something large.

For experiment [3], the target named is human ERβ ligand binding domain (Homo sapiens, UniProt Q92731). Put plainly: Competitive fluorometric receptor-binding assay, ERβ. The conditions noted are these: estradiol = 100 %; fluorescence polarisation, coumestrol tracer. On the procedure: as §2
For the next experiment, the target named is T3, ERβ (Homo sapiens, UniProt Q92731).
T3 construct: expressed in transfected cells; host or cells: HEK 293 T
Put plainly: 3×ERE-luciferase reporter gene assay in HEK 293 T cells, ERβ. It is filed as cell-based. The procedure: as §1

The mark [4] stands for this setting: Haemonchus contortus, 24 h; read-out: xL3 motility (IC50s in μM).
Where [5] appears, read: Haemonchus contortus, 48 h; read-out: xL3 motility (IC50s in μM).
[6] abbreviates: Haemonchus contortus, 72 h, 20 μM, 72 h; percent of motility compared with controls; mean of triplicate ± SEM; read-out: xL3 Motility Index(%).
Setting [7] is: Haemonchus contortus, 72 h; read-out: xL3 motility (IC50s in μM).
The mark [8] stands for this setting: Haemonchus contortus; 20 μM, 72 h; read-out: inhibition of xL3 motility in the primary screen.
Where [9] appears, read: percentage of 10^-8 M 17β-estradiol, mean ± SD.

T3 sequence (Q92731 whole entry): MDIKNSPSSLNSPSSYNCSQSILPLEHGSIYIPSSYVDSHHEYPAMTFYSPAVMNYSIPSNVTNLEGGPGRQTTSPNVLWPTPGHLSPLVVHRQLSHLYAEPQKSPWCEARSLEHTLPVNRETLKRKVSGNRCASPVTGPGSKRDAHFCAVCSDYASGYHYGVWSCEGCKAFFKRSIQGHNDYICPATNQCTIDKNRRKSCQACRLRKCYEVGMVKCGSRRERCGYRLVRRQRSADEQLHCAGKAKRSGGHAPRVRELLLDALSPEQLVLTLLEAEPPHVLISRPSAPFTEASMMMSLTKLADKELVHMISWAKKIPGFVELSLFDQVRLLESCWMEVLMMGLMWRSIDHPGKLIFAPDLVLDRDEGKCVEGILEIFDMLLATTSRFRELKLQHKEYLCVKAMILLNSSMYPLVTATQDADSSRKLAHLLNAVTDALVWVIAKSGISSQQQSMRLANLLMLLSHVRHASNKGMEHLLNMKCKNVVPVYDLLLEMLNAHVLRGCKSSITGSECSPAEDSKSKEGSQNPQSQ
human ERβ ligand binding domain, sequence (Q92731 264-498 limits assumed): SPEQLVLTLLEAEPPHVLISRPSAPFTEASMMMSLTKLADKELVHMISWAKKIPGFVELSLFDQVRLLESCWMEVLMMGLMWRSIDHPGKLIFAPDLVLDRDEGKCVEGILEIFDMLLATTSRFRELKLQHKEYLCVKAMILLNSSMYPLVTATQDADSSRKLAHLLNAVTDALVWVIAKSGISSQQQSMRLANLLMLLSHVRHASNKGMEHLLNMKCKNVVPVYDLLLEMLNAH

As for `Oc1ccc(-c2cscc2-c2ccc(O)cc2Cl)c(Cl)c1` [MJ-17], the IC50 in experiment [1] (setting [4]) is 25.7 µM; in experiment [1] (setting [5]) it was 25.6 µM; in experiment [1] (setting [7]), 23.8 µM; in experiment [1] (Haemonchus contortus; read-out: xL3 motility IC50 at both 48 h and 72 h), 23.8 to 25.6 µM. In experiment [1] (setting [6]), the activity at 20 µM was 20.6 ± 4.9%. Further, the inhibition at 20 µM in experiment [1] (setting [8]) is greater than 70%.

Take `Cc1cc(O)ccc1-c1ccc(-c2ccc(O)cc2F)s1` [MJ-22]: the IC50 in experiment [1] (setting [4]) is 6.6 µM; in experiment [1] (setting [5]), 7.2 µM; in experiment [1] (setting [7]), 9.6 µM. In addition, the activity at 20 µM in experiment [1] (setting [6]) was determined as 6.7 ± 8.2%. In experiment [1] (setting [8]), the inhibition at 20 µM was greater than 70%. Further, the “profile on ERα (agonist/antagonist)” value on ERα (luciferase reporter) was “super-agonist; also recorded: agonists”.

Regarding `C[C@](C#N)(COc1cc(C#N)ccc1C(F)(F)F)NC(=O)c1ccc(SC(F)(F)F)cc1` [Monepantel, reference compound], the figures for the IC50 in experiment [1] (setting [4]), in experiment [1] (setting [5]) and in experiment [1] (setting [7]) were roughly 52.1 µM, 6 µM and 0.4 µM, respectively.

For the molecule `CO/N=C1\C[C@]2(C[C@@H]3C[C@@H](C/C=C(\C)C[C@@H](C)/C=C/C=C4\CO[C@@H]5[C@H](O)C(C)=C[C@@H](C(=O)O3)[C@]45O)O2)O[C@H](/C(C)=C/C(C)C)[C@H]1C` [Moxidectin, reference compound], the values for the IC50 in experiment [1] (setting [4]), in experiment [1] (setting [5]) and in experiment [1] (setting [7]) were 2.5 µM, 2.5 µM and 2.3 µM, respectively.

As for `Oc1ccc(-c2ccc(-c3ccc(O)cc3Cl)[se]2)c(Cl)c1` [WZY-2], in experiment [2], the “relative binding affinity (RBA) ERα” value came out at 6.11%. In addition, in experiment [3], the “relative binding affinity (RBA) ERβ” value is listed as 12.7%. Besides, the IC50 in experiment [1] (Haemonchus contortus, 24 h, read-out: xL3 motility (IC50s in μM)) is 10 µM; in experiment [1] (Haemonchus contortus, 48 h, read-out: xL3 motility (IC50s in μM)), 13 µM; in experiment [1] (Haemonchus contortus, 72 h, read-out: xL3 motility (IC50s in μM)), 12.1 µM; at ERβ (against 10^-8 M E2, read-out: Antagonist mode ERβ IC50), 3.02 µM; at ERα (against 10^-8 M E2, read-out: Antagonist mode ERα IC50), greater than 10 µM. In experiment [1] (Haemonchus contortus, 72 h, read-out: inhibition of xL3 motility in the primary screen), the inhibition at 20 µM was greater than 70%. The activity at 20 µM in experiment [1] (Haemonchus contortus, 72 h, read-out: xL3 Motility Index(%), 20 μM, 72 h; percent of motility compared with controls; mean of triplicate ± SEM) amounted to 12.3 ± 0.1%. Besides, the EC50 is greater than 10 µM on ERβ (doses up to 10^-5 M, read-out: Agonist mode ERβ EC50) and greater than 10 µM at ERα (doses up to 10^-5 M, read-out: Agonist mode ERα EC50). The “profile on ERβ (agonist/antagonist)” value at ERβ (luciferase reporter) is listed as “antagonist”. The “Antagonist mode ERβ Eff (%E2)” value on ERβ (setting [9]) came to 13.9 ± 5.3 %E2. Further, the “Agonist mode ERα Efficacy (%E2)” value on ERα (setting [9]) is on record as -21 ± 13 %E2. For the same molecule, the “Antagonist mode ERα Efficacy (%E2)” value at ERα (setting [9]) amounted to 73 ± 8 %E2.

A word on the inhibition: it is the relative decrease from the control value, in per cent. In general, EC50 refers to the concentration giving half of the maximal effect.
